This is an account of results in patent US5326771A, “Piperidylmethyl-substituted chroman derivatives” (Bayer Aktiengesellschaft, priority 1991, dated 1994).

Broadly, the Ki is a measure of affinity in units of concentration, obtained from inhibition or displacement.

The test system of assay [1] is α-adrenergic. Conditions: in the form of its hydrochloride; Eur. J. Med. Chem. 22 (6), 539-544; cited from earlier work.
Assay [2] addresses 5-HT1 receptor. The assay can be described thus: Affinity for the 5-HT1 receptor (receptor-bonding, 3H-serotonin, calf hippocampus membranes). It counts as binding. Conditions: calf hippocampus membrane preparations, 3H-serotonin as radioligand. The protocol:
The high affinity of the compounds according to the invention for 5-hydroxytryptamine receptors of the subtype 1 is shown by way of example in Table [A]. The values stated are data which were determined from receptor-bonding studies using calf hippocampus membrane preparations. ^3 H-Serotonin was used as the radioactively labelled ligand for this purpose.

Assay [3] has as its target T1, Dopamine D2 receptor (Rattus norvegicus, UniProt P61169).
T1 construct: membranes from the striatum of the rat; from tissue; host or cells: rat striatum membranes
Put plainly: Dopamine D2 receptor test (3H-sulpiride bonding, rat striatum membranes). The conditions noted are these: Ki calculated from IC50 of displacement curves. It counts as binding. The protocol: This test is carried out in accordance with the following literature reference: Imafuku J. (1987), Brain Research 402; 331-338.
The bonding of the selective D2 receptor antagonist ^3 H-sulpiride to membranes from the striatum of the rat is measured here. Compounds which bond to dopamine D2 receptors inhibit the bonding of ^3 H-sulpiride as a function of the concentration. IC50 values are determined from the displacement curves, and the inhibition constants Ki are calculated from these.

In assay [4] the target is T2, 5-HT1A receptor (Bos taurus, UniProt F6Q2H9).
T2 construct: 5-HT1A receptors in calf hippocampus membranes; from tissue; host or cells: calf hippocampus membranes
T2 sequence (F6Q2H9 1-422): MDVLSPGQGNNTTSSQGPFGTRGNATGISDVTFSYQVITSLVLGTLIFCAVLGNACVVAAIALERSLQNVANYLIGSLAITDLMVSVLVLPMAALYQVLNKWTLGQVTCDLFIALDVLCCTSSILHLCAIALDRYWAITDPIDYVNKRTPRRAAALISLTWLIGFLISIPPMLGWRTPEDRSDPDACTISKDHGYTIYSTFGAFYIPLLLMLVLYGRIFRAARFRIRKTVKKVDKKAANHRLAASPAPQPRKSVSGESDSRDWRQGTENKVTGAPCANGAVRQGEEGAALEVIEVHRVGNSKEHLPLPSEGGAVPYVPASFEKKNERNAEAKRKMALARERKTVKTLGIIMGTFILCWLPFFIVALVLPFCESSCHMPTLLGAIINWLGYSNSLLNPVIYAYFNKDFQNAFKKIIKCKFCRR
Put plainly: Affinity for the 5-HT1A receptor (3H-ipsapirone bonding, calf hippocampus membranes). It counts as binding. On the procedure: [W. U. Dompert et al., Naunyn-Schmiedeberg's Arch. Pharmacol. (1985), 328, 467-470].
The bonding of ^3 H-ipsapirone to 5-HT1A receptors in calf hippocampus membranes is measured in this test.

Structures are written as SMILES. Structures can show the parent of a compound that is named as a salt.

T1 sequence (P61169 whole entry): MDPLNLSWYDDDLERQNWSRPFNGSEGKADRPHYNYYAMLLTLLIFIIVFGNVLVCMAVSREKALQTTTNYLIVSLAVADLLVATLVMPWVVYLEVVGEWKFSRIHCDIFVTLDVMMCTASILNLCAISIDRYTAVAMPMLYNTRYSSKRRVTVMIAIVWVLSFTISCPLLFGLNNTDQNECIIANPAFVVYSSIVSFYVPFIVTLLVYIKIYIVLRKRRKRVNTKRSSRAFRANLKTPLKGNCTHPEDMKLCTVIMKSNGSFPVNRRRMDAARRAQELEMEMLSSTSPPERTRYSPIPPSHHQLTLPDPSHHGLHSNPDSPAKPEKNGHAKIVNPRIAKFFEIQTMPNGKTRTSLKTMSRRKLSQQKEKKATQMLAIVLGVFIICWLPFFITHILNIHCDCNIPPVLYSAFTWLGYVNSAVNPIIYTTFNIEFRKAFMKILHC

For the compound `c1ccc2c(c1)CCC(CN1CCCCC1)O2` (centres unmarked) [1-[(3,4-dihydro-2H-1-benzopyran-2-yl)methyl]piperidine], the α-adrenergic blocking action entry in assay [1] was “having an α-adrenergic blocking action”. As to `COc1cccc2c1OC(CN1CCC(O)(c3ccc(Cl)cc3)CC1)CC2` (centres unmarked) [Example 1, 2-[4-(4-Chlorophenyl)-4-hydroxy-piperidin-1-yl]methyl-8-methoxy-chroman hydrochloride], in assay [2], the Ki amounted to 22 nM. For the compound `OC1(c2ccc(Cl)cc2)CCN(CC2CCc3ccccc3O2)CC1` (centres unmarked) [Example 4], the Ki in assay [2] is 76 nM; in assay [3], 2.5 nM.

For `COc1cccc2c1OC(CN1CCC(c3ccccc3)(c3ccccc3)CC1)CC2` (centres unmarked) [Example 5], the Ki in assay [4] came to 9.9 nM. Take `OC1(c2ccc(Cl)c(C(F)(F)F)c2)CCN(CC2CCc3ccccc3O2)CC1` (centres unmarked) [Example 8]: the Ki in assay [3] was 0.9 nM. Compound `COc1cccc2c1OC(CN1CCC(O)(c3cccc(C(F)(F)F)c3)CC1)CC2` (centres unmarked) [Example 9] showed a Ki in assay [4] of 6 nM. `OC1(c2cccc(C(F)(F)F)c2)CCN(CC2CCc3ccccc3O2)CC1` (centres unmarked) [Example 10]: the Ki in assay [3] is 2.3 nM.
